# According to publication PMC2803217 (Journal of Experimental Botany, 2009):
# T1: AtPMT2 (Arabidopsis thaliana, UniProt Q9XIH6)
# T1 sequence (Q9XIH6 1-511): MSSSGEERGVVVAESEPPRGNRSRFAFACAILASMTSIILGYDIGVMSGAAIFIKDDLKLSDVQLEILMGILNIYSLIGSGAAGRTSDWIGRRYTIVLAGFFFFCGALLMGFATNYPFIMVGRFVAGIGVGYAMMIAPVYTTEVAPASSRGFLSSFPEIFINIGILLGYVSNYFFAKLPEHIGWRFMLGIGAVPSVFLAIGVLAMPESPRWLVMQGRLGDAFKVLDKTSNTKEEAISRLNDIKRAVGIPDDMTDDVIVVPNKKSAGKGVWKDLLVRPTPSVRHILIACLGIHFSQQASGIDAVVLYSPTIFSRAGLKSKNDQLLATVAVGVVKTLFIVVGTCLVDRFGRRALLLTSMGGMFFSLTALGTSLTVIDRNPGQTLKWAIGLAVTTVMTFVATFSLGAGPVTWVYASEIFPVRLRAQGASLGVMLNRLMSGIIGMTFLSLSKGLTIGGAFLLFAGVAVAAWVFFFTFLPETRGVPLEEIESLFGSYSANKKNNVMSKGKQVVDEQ
# T2: AtPMT1 (Arabidopsis thaliana, UniProt Q9XIH7)
# T2 sequence (Q9XIH7 1-511): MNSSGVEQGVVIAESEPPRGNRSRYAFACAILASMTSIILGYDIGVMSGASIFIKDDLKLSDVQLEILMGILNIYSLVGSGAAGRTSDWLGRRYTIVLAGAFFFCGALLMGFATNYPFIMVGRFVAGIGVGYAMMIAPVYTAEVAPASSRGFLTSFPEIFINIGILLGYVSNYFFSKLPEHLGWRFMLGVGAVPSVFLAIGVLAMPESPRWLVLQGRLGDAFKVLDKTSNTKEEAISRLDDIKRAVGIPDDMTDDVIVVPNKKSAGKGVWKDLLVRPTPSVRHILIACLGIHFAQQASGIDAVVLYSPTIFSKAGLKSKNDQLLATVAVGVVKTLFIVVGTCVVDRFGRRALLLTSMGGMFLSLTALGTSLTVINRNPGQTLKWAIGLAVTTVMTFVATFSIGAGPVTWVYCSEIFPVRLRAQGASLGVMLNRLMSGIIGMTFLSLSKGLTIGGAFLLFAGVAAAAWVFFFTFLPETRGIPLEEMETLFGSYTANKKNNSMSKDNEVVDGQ
# B1: AtPMT1 (Arabidopsis thaliana) (protein)
# chain: T2 sequence (Q9XIH7 1-511)
# B2: AtPMT2 (Arabidopsis thaliana) (protein)
# chain: T1 sequence (Q9XIH6 1-511)
# Experiments:
# [1] = target: T1, AtPMT2; assay: competition of […]-sorbitol uptake in transgenic yeast; assay type: cell-based; conditions: pH 5.0
# [2] = target: T2, AtPMT1; assay: as above; assay type: cell-based; conditions: pH 5.0
# [3] = substrate: OC[C@@H](O)[C@@H](O)[C@H](O)[C@@H](O)CO; assay: cells, lysate or membranes; conditions: 50 mM sodium phosphate pH 5.0, H+ symport
# [4] = substrate: OC[C@@H](O)[C@H](O)[C@@H](O)CO; assay: cells, lysate or membranes; conditions: 50 mM sodium phosphate pH 5.0, H+ symport
molecule,measurement,setting,value
OC[C@@H](O)[C@@H](O)[C@H](O)[C@@H](O)CO [sorbitol],uptake of 0.1 mM 14C-sorbitol with 10 mM competitor,[1]; 10 mM unlabelled sorbitol,sorbitol was transported by both cell lines
OC[C@@H](O)[C@@H](O)CO [erythritol],uptake of 0.1 mM 14C-sorbitol with 10 mM competitor,[2],"In both strains, uptake of sorbitol was strongly reduced in the presence of xylitol"
same,uptake of 0.1 mM 14C-sorbitol with 10 mM competitor,[1]; 10 mM competitor,"In both strains, uptake of sorbitol was strongly reduced in the presence of xylitol"
B1,Km,[3],770 ± 120 µM
same,Km,[4],140 ± 20 µM
B2,Km,[4],180 ± 10 µM
